# Measurements taken from ChEMBL document CHEMBL5523716, “Discovery of novel EGFR-PROTACs capable of degradation of multiple EGFR-mutated proteins” (Eur J Med Chem, 2024).
# The source made the active and inactive calls. No cut-off for these calls is given here.
# Key:
# [1] = test system: von Hippel-Lindau disease tumor suppressor/Epidermal growth factor receptor (Homo sapiens), P00533+P40337 [UNDEFINED MUTATION]; assay: PROTAC activity at VHL/EGFR Del19 mutant in human HCC827 cells assessed as induction of EGFR degradation at 100 nM preincubated with MG-132 for 6 hrs followed by compound treatment for 48 hrs by Western blot analysis; format: cell-based
# [2] = Metabolic stability in monkey liver microsomes assessed as elimination rate constant at 1 uM incubated upto 60 mins in presence of NADPH by LC-MS/MS analysis; format: ADME, Macaca mulatta, Microsome; details: rhesus monkey
# [3] = Metabolic stability in rat liver microsomes assessed as half-life at 1 uM incubated upto 60 mins in presence of NADPH by LC-MS/MS analysis; format: ADME, Microsome
# [4] = test system: von Hippel-Lindau disease tumor suppressor/Epidermal growth factor receptor (Homo sapiens), P00533+P40337 [L858R,T790M,C797S]; assay: PROTAC activity at VHL/EGFR L858R/T790M/C797S mutant in human H1975-TM cells assessed as downregulation of ERK phosphorylation incubated for 48 hrs by Western blot analysis; format: cell-based
# [5] = Tmax in SPF ICR mouse at 2 mg/kg,iv measured upto 24 hrs by LC-MS/MS analysis; format: ADME, organism-based; details: in vivo
# HCC827 [6] = assay: Antiproliferative activity against human HCC827 cells harboring EGFR Del19 mutant assessed as inhibition of cell growth incubated for 48 to 72 hrs by CCK-8 assay; format: functional, cell-based
# NCI-H1975 [7] = assay: Antitumor activity against human NCI-H1975 cells xenografted in BALB/c mouse assessed as tumor growth inhibition at 10 mg/kg,ip once daily for 22 days relative to control; format: functional; details: NCI-H1975, 528 h, time 22 day, read-out: TGI
# [8] = Metabolic stability in dog liver microsomes assessed as half-life at 1 uM incubated upto 60 mins in presence of NADPH by LC-MS/MS analysis; format: ADME, Canis lupus familiaris, Microsome
# [9] = molecular target: von Hippel-Lindau disease tumor suppressor/Epidermal growth factor receptor (Homo sapiens, UniProt P00533+P40337, T790M/C797S/L858R); assay: PROTAC activity at VHL/EGFR L858R/T790M/C797S mutant in human H1975-TM cells assessed as induction of EGFR degradation incubated for 48 hrs by Western blot analysis; format: cell-based
# [10] = test system: von Hippel-Lindau disease tumor suppressor/Epidermal growth factor receptor (Homo sapiens), P00533+P40337 [L858R,T790M]; assay: PROTAC activity at VHL/EGFR L858R/T790M mutant in human NCI-H1975 cells assessed as downregulation of ERK phosphorylation incubated for 72 hrs by Western blot analysis; format: cell-based
# [11] = test system: von Hippel-Lindau disease tumor suppressor/Epidermal growth factor receptor (Homo sapiens), P00533+P40337 [L858R,T790M]; assay: PROTAC activity at VHL/EGFR L858R/T790M mutant in human NCI-H1975 cells assessed as maximal EGFR degradation at 0.07 to 5 uM incubated for 72 hrs by Western blot analysis relative to control; format: cell-based; details: dose 0.07-5 µM
# HCC827 [12] = assay: Antitumor activity against human HCC827 cells xenografted in BALB/c mouse assessed as increase in EGFR degradation in tumor at 1.25 to 5 mg/kg,ip once daily for 28 days by Western blot analysis; format: functional, organism-based; details: dose 1.25-5 mg/kg, time 28.0 day
# [13] = MRT (0 to infinity) in SPF ICR mouse at 5 mg/kg,ip measured upto 24 hrs by LC-MS/MS analysis; format: ADME, organism-based; details: in vivo
# [14] = Antitumor activity against human H1975-TM cells xenografted in BALB/c mouse assessed as tumor growth inhibition at 5 mg/kg,ip once daily for 14 days relative to control; format: functional; details: 336 h, time 14 day, read-out: TGI
# [15] = Metabolic stability in mouse liver microsomes assessed as elimination rate constant at 1 uM incubated upto 60 mins in presence of NADPH by LC-MS/MS analysis; format: ADME, Microsome
# [16] = test system: von Hippel-Lindau disease tumor suppressor/Epidermal growth factor receptor (Homo sapiens), P00533+P40337 [L858R,T790M]; assay: PROTAC activity at VHL/EGFR L858R/T790M mutant in human NCI-H1975 cells assessed as induction of EGFR degradation at 2 uM by Western blot analysis; format: cell-based; details: TDE = time-dependent effect
# [17] = test system: von Hippel-Lindau disease tumor suppressor/Epidermal growth factor receptor (Homo sapiens), P00533+P40337 [L858R,T790M]; assay: PROTAC activity at VHL/EGFR L858R/T790M mutant in human NCI-H1975 cells assessed as induction of EGFR degradation at 2 uM incubated for 8 hr by Western blot analysis; format: cell-based
# [18] = test system: von Hippel-Lindau disease tumor suppressor/Epidermal growth factor receptor (Homo sapiens), P00533+P40337 [L858R,T790M]; assay: PROTAC activity at VHL/EGFR L858R/T790M mutant in human NCI-H1975 cells assessed as induction of EGFR degradation at 100 nM preincubated with MLN-4924 for 6 hrs followed by compound treatment for 48 hrs by Western blot analysis; format: cell-based
# [19] = AUC (0 to t) in SPF ICR mouse at 5 mg/kg,ip measured upto 24 hrs by LC-MS/MS analysis; format: ADME, organism-based; details: in vivo
# [20] = test system: von Hippel-Lindau disease tumor suppressor/Epidermal growth factor receptor (Homo sapiens), P00533+P40337 [L858R,T790M,C797S]; assay: PROTAC activity at VHL/EGFR L858R/T790M/C797S mutant in human H1975-TM cells assessed as induction of EGFR degradation at 100 nM preincubated with MLN-4924 for 6 hrs followed by compound treatment for 48 hrs by Western blot analysis; format: cell-based
# [21] = Metabolic stability in dog liver microsomes assessed as intrinsic clearance at 1 uM incubated upto 60 mins in presence of NADPH by LC-MS/MS analysis; format: ADME, Canis lupus familiaris, Microsome; details: read-out: CLH
# [22] = test system: von Hippel-Lindau disease tumor suppressor/Epidermal growth factor receptor (Homo sapiens), P00533+P40337 [UNDEFINED MUTATION]; assay: PROTAC activity at VHL/EGFR Del19 mutant in human HCC827 cells assessed as downregulation of ERK phosphorylation incubated for 72 hrs by Western blot analysis; format: cell-based
# NCI-H1975 [23] = assay: Antiproliferative activity against human NCI-H1975 cells harboring EGFR L858R/T790M double mutant assessed as inhibition of cell growth incubated for 48 to 72 hrs by CCK-8 assay; format: functional, cell-based
# [24] = Metabolic stability in mouse liver microsomes assessed as intrinsic clearance at 1 uM incubated upto 60 mins in presence of NADPH by LC-MS/MS analysis; format: ADME, Microsome; details: read-out: CLH
# [25] = Toxicity in BALB/c mouse xenografted with human HCC827 cells assessed as change in body weight at 1.25 to 5 mg/kg,ip once daily for 28 days; format: organism-based; details: in vivo, 672 h, dose 1.25-5 mg/kg, time 28 day
# [26] = molecular target: Voltage-gated inwardly rectifying potassium channel KCNH2 (Homo sapiens, UniProt Q12809); assay: Inhibition of hERG expressed in CHO cells at 0.3 to 30 uM incubated for 24 to 48 hrs by voltage clamp electrophysiology; format: toxicity, cell-based; details: dose lower 0.3 µM, time lower 24 hrs, dose upper 30 µM, time upper 48 hrs
# Chain of Voltage-gated inwardly rectifying potassium channel KCNH2 (Q12809 whole entry): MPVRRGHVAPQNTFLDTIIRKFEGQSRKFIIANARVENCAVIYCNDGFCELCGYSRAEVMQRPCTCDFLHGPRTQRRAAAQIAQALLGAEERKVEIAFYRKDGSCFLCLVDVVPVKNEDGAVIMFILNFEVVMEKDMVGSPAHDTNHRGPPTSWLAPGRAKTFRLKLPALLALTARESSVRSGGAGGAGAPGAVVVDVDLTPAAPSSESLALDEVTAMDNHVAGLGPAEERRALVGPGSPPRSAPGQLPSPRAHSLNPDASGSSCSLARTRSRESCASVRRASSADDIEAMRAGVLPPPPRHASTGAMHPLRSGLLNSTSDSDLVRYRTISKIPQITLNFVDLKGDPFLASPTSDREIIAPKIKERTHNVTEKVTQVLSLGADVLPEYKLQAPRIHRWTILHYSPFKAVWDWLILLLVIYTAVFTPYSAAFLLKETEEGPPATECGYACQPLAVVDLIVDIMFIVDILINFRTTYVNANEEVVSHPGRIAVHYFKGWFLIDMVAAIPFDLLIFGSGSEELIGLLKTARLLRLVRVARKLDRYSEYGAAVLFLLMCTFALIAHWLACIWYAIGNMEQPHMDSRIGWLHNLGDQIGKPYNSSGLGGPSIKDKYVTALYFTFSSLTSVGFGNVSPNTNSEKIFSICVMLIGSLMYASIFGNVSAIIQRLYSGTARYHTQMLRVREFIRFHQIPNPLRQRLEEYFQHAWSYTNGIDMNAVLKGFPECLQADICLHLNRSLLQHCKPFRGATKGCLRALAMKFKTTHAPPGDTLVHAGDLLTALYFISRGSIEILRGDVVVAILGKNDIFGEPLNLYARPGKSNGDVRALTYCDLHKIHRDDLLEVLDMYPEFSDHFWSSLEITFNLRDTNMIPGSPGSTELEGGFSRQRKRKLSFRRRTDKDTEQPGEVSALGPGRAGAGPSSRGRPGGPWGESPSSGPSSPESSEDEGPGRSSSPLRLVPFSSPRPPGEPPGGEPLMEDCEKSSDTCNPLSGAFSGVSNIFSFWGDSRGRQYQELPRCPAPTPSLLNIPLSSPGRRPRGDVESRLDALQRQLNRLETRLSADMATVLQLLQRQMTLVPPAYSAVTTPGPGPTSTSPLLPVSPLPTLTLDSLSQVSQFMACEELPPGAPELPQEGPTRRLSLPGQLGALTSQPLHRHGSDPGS
# [27] = AUC (0 to t) in SPF ICR mouse at 2 mg/kg,iv measured upto 24 hrs by LC-MS/MS analysis; format: ADME, organism-based; details: in vivo
# [28] = MRT (0 to infinity) in SPF ICR mouse at 2 mg/kg,iv measured upto 24 hrs by LC-MS/MS analysis; format: ADME, organism-based; details: in vivo
# [29] = test system: von Hippel-Lindau disease tumor suppressor/Epidermal growth factor receptor (Homo sapiens), P00533+P40337 [L858R,T790M]; assay: PROTAC activity at VHL/EGFR L858R/T790M mutant in human NCI-H1975 cells assessed as induction of EGFR degradation at 100 nM preincubated with MG-132 for 6 hrs followed by compound treatment for 48 hrs by Western blot analysis; format: cell-based
smiles,measurement,setting,value
CCN(CC)C/C=C/C(=O)Nc1cc2c(Nc3ccc(F)c(Cl)c3)ncnc2cc1OCc1cn(CCCCCCCC(=O)N[C@H](C(=O)N2C[C@H](O)C[C@H]2C(=O)N[C@H](C)c2ccc(-c3scnc3C)cc2)C(C)(C)C)nn1,Activity,[1],inactive
same,"k el at 1 h, 1 µM",[2],0.0003 s⁻¹
same,half-life at 1 µM,[3],187 min
same,Activity,[4],Dose-Dependent Effect
same,Tmax,[5],4.8 min
same,IC50,HCC827 [6],9 nM
same,inhibition in vivo at 10 mg/kg,NCI-H1975 [7],79%
same,half-life at 1 µM,[8],77.9 min
same,DC50,[9],630 nM
same,Activity,[10],Dose-Dependent Effect
same,Emax,[11],94%
same,Activity,HCC827 [12],Active
same,MRT inf,[13],2.89 h
same,inhibition in vivo at 5 mg/kg,[14],24%
same,"k el at 1 h, 1 µM",[15],0.0001 s⁻¹
same,Activity,[16],Tde
same,Activity,[17],83%
same,Activity,[18],inactive
same,AUC(0-t) at 24 h,[19],2820 ng·h/mL
same,Activity,[20],inactive
same,microsomal CLint at 1 µM,[21],17.8 µL/min/mg
same,Activity,[22],Dose-Dependent Effect
same,IC50,NCI-H1975 [23],490 nM
same,microsomal CLint at 1 µM,[24],11.8 µL/min/mg
same,Activity,[25],Non-Toxic
same,inhibition (INH),[26],Not Active
same,AUC(0-t) at 24 h,[27],2350 ng·h/mL
same,MRT inf,[28],20.4 min
same,Activity,[29],inactive
